Measurements as given in US6534090B2, “Oral osmotic controlled drug delivery system for a sparingly soluble drug” (Sun Pharmaceutical Advanced Research Centre Limited, priority 2001, dated 2003).

Assays:
[1] = Comparative experiments: anhydrous carbamazepine suspended in water or aqueous solution of a crystal habit modifier; format: physicochemical
[2] = cited from earlier work
[3] = below 4 μg/ml ineffective, above 12 μg/ml side-effects likely; cited from earlier work

## NC(=O)N1c2ccccc2C=Cc2ccccc21 [carbamazepine, 5H-dibenz-[b,f]azepine-5-carboxamide]
[1]; in the presence of hydroxypropyl methylcellulose
  conversion of anhydrous carbamazepine microcrystals: did not convert to the dihydrate crystals
[1]; in water, absence of a crystal habit modifier, long discrete needles that cluster
  length of crystals formed from anhydrous carbamazepine: ≤ 500 μm
[2]
  solubility in water: sparingly soluble in water
[3]
  therapeutic range (blood levels): 4 to 12 µg/mL
